Reference: patent publication US7507730B2, “Substituted pyrazolo[1,5-a]pyrimidines as potassium channel activators” (Bristol-Myers Squibb Company, priority 2005, dated 2009)

biological target: Kv1.5 (Homo sapiens, UniProt P22460); assay: Kv1.5 inhibition assay (IKur inhibitor assay per cited references); type: cell-based; settings: at 0.3 μM
Excerpt: Assays to determine the degree of activity of a compound as an IKur inhibitor are well known in the art and are described in references such as J. Gen. Physiol. Apr.; 101 (4):513-43, and Br. J. Pharmacol. 1995 May; 115(2):267-74.

Kv1.5, sequence (P22460 whole entry): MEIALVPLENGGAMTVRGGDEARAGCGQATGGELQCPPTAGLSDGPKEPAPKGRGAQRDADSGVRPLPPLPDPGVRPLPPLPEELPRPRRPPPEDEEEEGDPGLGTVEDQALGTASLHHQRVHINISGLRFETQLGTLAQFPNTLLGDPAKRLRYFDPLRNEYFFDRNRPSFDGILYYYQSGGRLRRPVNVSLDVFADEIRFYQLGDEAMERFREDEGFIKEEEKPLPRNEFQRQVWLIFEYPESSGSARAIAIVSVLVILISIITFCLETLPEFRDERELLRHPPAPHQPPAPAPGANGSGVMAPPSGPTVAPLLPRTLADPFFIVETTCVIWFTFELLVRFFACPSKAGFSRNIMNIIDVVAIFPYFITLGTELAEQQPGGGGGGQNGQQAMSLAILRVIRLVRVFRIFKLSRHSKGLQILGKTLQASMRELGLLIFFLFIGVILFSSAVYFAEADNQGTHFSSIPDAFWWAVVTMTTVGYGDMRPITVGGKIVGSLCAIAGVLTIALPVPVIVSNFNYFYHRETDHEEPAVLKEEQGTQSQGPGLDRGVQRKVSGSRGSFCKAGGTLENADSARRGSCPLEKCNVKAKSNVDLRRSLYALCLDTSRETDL

Going from `COc1ccc(S(=O)(=O)C2=C(C)Nc3cc(C)nn3C2c2ccc(Cl)cc2)cc1` (single isomer, unassigned) [Example 19 Isomer 2, 7-(4-Chlorophenyl)-6-(4-methoxyphenylsulfonyl)-2,5-dimethyl-4,7-dihydropyrazolo[1,5-a]pyrimidine] to `COc1ccc(S(=O)(=O)C2=C(C)Nc3cc(C(F)(F)F)nn3C2c2ccc(Cl)cc2)cc1` (single isomer, unassigned) [Example 25 Isomer 1, 7-(4-Chlorophenyl)-6-(4-methoxyphenylsulfonyl)-5-methyl-2-(trifluoromethyl)-4,7-dihydropyrazolo[1,5-a]pyrimidine], the inhibition at 0.3 µM rises from 42.3% to 85.6%.

Going from `CC1=C(S(=O)(=O)c2ccccc2)C(c2ccc(Cl)cc2)n2nc(C(F)(F)F)cc2N1` (single isomer, unassigned) [Example 26 Isomer 1, 7-(4-Chlorophenyl)-5-methyl-6-(phenylsulfonyl)-2-(trifluoromethyl)-4,7-dihydropyrazolo[1,5-a]pyrimidine] to `CC1=C(S(=O)(=O)c2ccccc2)C(c2ccc(F)cc2)n2nc(C(F)(F)F)cc2N1` (single isomer, unassigned) [Example 36 Isomer 2, 7-(4-Fluorophenyl)-5-methyl-6-(phenylsulfonyl)-2-(trifluoromethyl)-4,7-dihydropyrazolo[1,5-a]pyrimidine], the inhibition at 0.3 µM falls from 85.8% to 49%.

Compared with `CC1=C(S(=O)(=O)c2ccc(F)cc2)C(c2ccc(Cl)cc2)n2nc(C(F)(F)F)cc2N1` (single isomer, unassigned) [Example 27 Isomer 1, 7-(4-Chlorophenyl)-6-(4-fluorophenylsulfonyl)-5-methyl-2-(trifluoromethyl)-4,7-dihydropyrazolo[1,5-a]pyrimidine], `CC1=C(S(=O)(=O)c2ccc(C)cc2)C(c2ccc(Cl)cc2)n2nc(C(F)(F)F)cc2N1` (single isomer, unassigned) [Example 28 Isomer 1, 7-(4-Chlorophenyl)-5-methyl-6-tosyl-2-(trifluoromethyl)-4,7-dihydropyrazolo[1,5-a]pyrimidine] is higher in inhibition at 0.3 µM: 47.6% for the first, 77.4% for the second.

Going from `CC1=C(S(=O)(=O)C2CCCCC2)C(c2ccc(Cl)cc2)n2nc(C(F)(F)F)cc2N1` (single isomer, unassigned) [Example 29 Isomer 2, 7-(4-Chlorophenyl)-6-(cyclohexylsulfonyl)-5-methyl-2-(trifluoromethyl)-4,7-dihydropyrazolo[1,5-a]pyrimidine] to `CCCCS(=O)(=O)C1=C(C)Nc2cc(C(F)(F)F)nn2C1c1ccc(Cl)cc1` (single isomer, unassigned) [Example 30 Isomer 2, 6-(Butylsulfonyl)-7-(4-chlorophenyl)-5-methyl-2-(trifluoromethyl)-4,7-dihydropyrazolo[1,5-a]pyrimidine], the inhibition at 0.3 µM falls from 87.9% to 77%.

First: CC1=C(S(=O)(=O)c2ccc(Cl)cc2)C(c2ccc(Cl)cc2)n2nc(C(F)(F)F)cc2N1 (single isomer, unassigned) [Example 31 Isomer 1, 7-(4-Chlorophenyl)-6-(4-chlorophenylsulfonyl)-5-methyl-2-(trifluoromethyl)-4,7-dihydropyrazolo[1,5-a]pyrimidine]
Second: CC1=C(S(=O)(=O)c2ccccc2)C(c2ccc(Cl)c(F)c2)n2nc(C(F)(F)F)cc2N1 (single isomer, unassigned) [Example 33 Isomer 1, 7-(4-Chloro-3-fluorophenyl)-5-methyl-6-(phenylsulfonyl)-2-(trifluoromethyl)-4,7-dihydropyrazolo[1,5-a]pyrimidine]
The inhibition at 0.3 µM of the first is higher: 82.7% for the first, 75.5% for the second.

In the case of `COc1ccc(S(=O)(=O)C2=C(C)Nc3cc(C(F)(F)F)nn3C2c2ccc(C)c(F)c2)cc1` (single isomer, unassigned) [Example 32 Isomer 1, 7-(3-Fluoro-4-methylphenyl)-6-(4-methoxyphenylsulfonyl)-5-methyl-2-(trifluoromethyl)-4,7-dihydropyrazolo[1,5-a]pyrimidine], the inhibition at 0.3 µM is reported as 81.8%.

First: COc1ccc(S(=O)(=O)C2=C(C)Nc3cc(C)nn3C2c2nc3ccccc3n2C)cc1 (single isomer, unassigned) [Example 23 Isomer 1, 6-(4-Methoxyphenylsulfonyl)-2,5-dimethyl-7-(1-methyl-1H-benzo[d]imidazol-2-yl)-4,7-dihydropyrazolo[1,5-a]pyrimidine]
Second: COc1ccc(S(=O)(=O)C2=C(C)Nc3cc(C(F)(F)F)nn3C2c2ccc(C)c(F)c2)cc1 (single isomer, unassigned) [Example 32 Isomer 2, 7-(3-Fluoro-4-methylphenyl)-6-(4-methoxyphenylsulfonyl)-5-methyl-2-(trifluoromethyl)-4,7-dihydropyrazolo[1,5-a]pyrimidine]
The Kv1.5% inhibition of the first is lower: 6.5% for the first, 72.7% for the second.

Going from `COc1ccc(S(=O)(=O)C2=C(C)Nc3cc(C)nn3C2c2nc3ccccc3n2C)cc1` (single isomer, unassigned) [Example 23 Isomer 2, 6-(4-Methoxyphenylsulfonyl)-2,5-dimethyl-7-(1-methyl-1H-benzo[d]imidazol-2-yl)-4,7-dihydropyrazolo[1,5-a]pyrimidine] to `COc1ccc(S(=O)(=O)C2=C(C)Nc3cc(C(F)(F)F)nn3C2c2ccc(Cl)cc2)cc1` (single isomer, unassigned) [Example 25 Isomer 2, 7-(4-Chlorophenyl)-6-(4-methoxyphenylsulfonyl)-5-methyl-2-(trifluoromethyl)-4,7-dihydropyrazolo[1,5-a]pyrimidine], the Kv1.5% inhibition rises from 16.6% to 82.9%.

Compared with `CC1=C(S(=O)(=O)c2ccccc2)C(c2ccc(Cl)cc2)n2nc(C(F)(F)F)cc2N1` (single isomer, unassigned) [Example 26 Isomer 2, 7-(4-Chlorophenyl)-5-methyl-6-(phenylsulfonyl)-2-(trifluoromethyl)-4,7-dihydropyrazolo[1,5-a]pyrimidine], `CC1=C(S(=O)(=O)c2ccccc2)C(c2ccc(Cl)c(F)c2)n2nc(C(F)(F)F)cc2N1` (single isomer, unassigned) [Example 33 Isomer 2, 7-(4-Chloro-3-fluorophenyl)-5-methyl-6-(phenylsulfonyl)-2-(trifluoromethyl)-4,7-dihydropyrazolo[1,5-a]pyrimidine] is lower in Kv1.5% inhibition: 85.9% for the first, 76.5% for the second.

First: CC1=C(S(=O)(=O)c2ccc(C)cc2)C(c2ccc(Cl)cc2)n2nc(C(F)(F)F)cc2N1 (single isomer, unassigned) [Example 28 Isomer 2, 7-(4-Chlorophenyl)-5-methyl-6-tosyl-2-(trifluoromethyl)-4,7-dihydropyrazolo[1,5-a]pyrimidine]
Second: CC1=C(S(=O)(=O)c2ccc(Cl)cc2)C(c2ccc(Cl)cc2)n2nc(C(F)(F)F)cc2N1 (single isomer, unassigned) [Example 31 Isomer 2, 7-(4-Chlorophenyl)-6-(4-chlorophenylsulfonyl)-5-methyl-2-(trifluoromethyl)-4,7-dihydropyrazolo[1,5-a]pyrimidine]
The Kv1.5% inhibition of the first is higher: 83.4% for the first, 81.9% for the second.

same assay, conditions: read-out: Kv1.5 IC50

Compared with `COc1ccc(S(=O)(=O)C2=C(C)Nc3cc(C)nn3C2c2ccc(C)c(F)c2)cc1` (single isomer, unassigned) [Example 24 Isomer 1, 7-(3-Fluoro-4-methylphenyl)-6-(4-methoxyphenylsulfonyl)-2,5-dimethyl-4,7-dihydropyrazolo[1,5-a]pyrimidine], `CC1=C(S(=O)(=O)c2ccc(F)cc2)C(c2ccc(Cl)cc2)n2nc(C(F)(F)F)cc2N1` (single isomer, unassigned) [Example 27 Isomer 2, 7-(4-Chlorophenyl)-6-(4-fluorophenylsulfonyl)-5-methyl-2-(trifluoromethyl)-4,7-dihydropyrazolo[1,5-a]pyrimidine] is 1.6-fold lower in IC50: 148 nM for the first, 92 nM for the second.

`COc1ccc(S(=O)(=O)C2=C(C)Nc3cc(C)nn3C2c2ccc(C)c(F)c2)cc1` (single isomer, unassigned) [Example 24 Isomer 2, 7-(3-Fluoro-4-methylphenyl)-6-(4-methoxyphenylsulfonyl)-2,5-dimethyl-4,7-dihydropyrazolo[1,5-a]pyrimidine] and `CC1=C(S(=O)(=O)c2ccc(Cl)cc2)C(c2ccccc2)n2nc(C(F)(F)F)cc2N1` (single isomer, unassigned) [Example 35 Isomer 1, 6-(4-Chlorophenylsulfonyl)-5-methyl-7-phenyl-2-(trifluoromethyl)-4,7-dihydropyrazolo[1,5-a]pyrimidine] are within 1.5-fold of each other in IC50: 322 nM for the first, 277 nM for the second.

`CC1=C(S(=O)(=O)C2CCCCC2)C(c2ccc(Cl)cc2)n2nc(C(F)(F)F)cc2N1` (single isomer, unassigned) [Example 29 Isomer 1, 7-(4-Chlorophenyl)-6-(cyclohexylsulfonyl)-5-methyl-2-(trifluoromethyl)-4,7-dihydropyrazolo[1,5-a]pyrimidine] and `CCCCS(=O)(=O)C1=C(C)Nc2cc(C(F)(F)F)nn2C1c1ccc(Cl)cc1` (single isomer, unassigned) [Example 30 Isomer 1, 6-(Butylsulfonyl)-7-(4-chlorophenyl)-5-methyl-2-(trifluoromethyl)-4,7-dihydropyrazolo[1,5-a]pyrimidine] are within 1.5-fold of each other in IC50: 204 nM for the first, 210 nM for the second.

`CC1=C(S(=O)(=O)c2ccc(Cl)cc2)C(c2ccccc2)n2nc(C(F)(F)F)cc2N1` (single isomer, unassigned) [Example 35 Isomer 2, 6-(4-Chlorophenylsulfonyl)-5-methyl-7-phenyl-2-(trifluoromethyl)-4,7-dihydropyrazolo[1,5-a]pyrimidine] and `CC1=C(S(=O)(=O)c2ccccc2)C(c2ccc(F)cc2)n2nc(C(F)(F)F)cc2N1` (single isomer, unassigned) [Example 36 Isomer 1, 7-(4-Fluorophenyl)-5-methyl-6-(phenylsulfonyl)-2-(trifluoromethyl)-4,7-dihydropyrazolo[1,5-a]pyrimidine] are within 1.5-fold of each other in IC50: 252 nM for the first, 208 nM for the second.

For `CC1=C(S(=O)(=O)NC2CCCCC2)C(c2ccc(Cl)c(Cl)c2)n2nc(C)cc2N1` (single isomer, unassigned) [Example 38 Isomer 1, N-Cyclohexyl-7-(3,4-dichlorophenyl)-2,5-dimethyl-4,7-dihydropyrazolo[1,5-a]pyrimidine-6-sulfonamide], the IC50 was 108 nM.
